The nature of this data set: clinical. Conditions: in vivo, iv. An excerpt:
The drug-drug interaction study was a phase 1, single-center, multiarm, open-label, randomized, three-period crossover study. The objective was to evaluate the DDI potential and the PK of SPR741 coadministered with each of three partner antibiotics as well as the DDI and PK effects of three partner antibiotics administered alone and with SPR741. The study comprised a screening phase (day −28 to day −2), three treatment arms (day 1 to day 8 for each arm), and an end-of-study follow-up (day 9). Each subject participated in screening, one treatment arm, and the end-of-study follow-up. The maximum duration of participation for each subject was approximately 37 days. Subjects remained in the clinical unit from the day before dosing (day −1) to 24 h after the third and last dose period (day 8).
The DDI study consisted of three treatment arms with three dosing periods in each arm (days 1, 4, and 7). In random sequence, subjects received a single dose of study treatments with a 2-day washout period between each assigned treatment. In treatment arm 1, subjects received 400 mg of SPR741 i.v. over 1 h, 400 mg of SPR741 i.v. over 1 h plus 1.0 g of ceftazidime i.v. over 1 h, and 1.0 g of ceftazidime i.v. over 1 h. In treatment arm 2, subjects received 400 mg of SPR741 i.v. over 1 h, 400 mg of SPR741 i.v. over 1 h plus 4.5 g of piperacillin-tazobactam i.v. over 1 h, and 4.5 g of piperacillin-tazobactam i.v. over 1 h.
For both studies, maximum plasma concentration (Cmax), area under the concentration-time curve from time zero to the last measurable time point (AUC0-t), area under the concentration-time curve from time zero to infinity (AUC0-inf), time to maximum concentration (Tmax), terminal elimination rate constant (kel), terminal half-life (t1/2), terminal clearance (CL), and volume of distribution (V) were determined. PK parameters were determined using WinNonlin Phoenix, version 6.4.
For the SAD phase, blood samples were obtained predose (within 10 min), at 30 min following the start of infusion, at the end of infusion, and at 75, 90, 105, 120, and 150 min and 3, 4, 5, 6, 8, 10, 12, and 24 h following the start of infusion. For the MAD phase, blood was obtained predose (within 10 min), at 30 min following the start of infusion, at the end of infusion, and at 90 and 150 min and 3, 4, 5, 6, and 8 h following the start of infusion (day 1, first dose; day 14, last dose). Five additional blood samples were obtained at 10, 12, 24, 36, and 48 h following the start of infusion of the last dose (morning of day 14). For the DDI study, blood samples for determining plasma concentrations of SPR741 and each partner antibiotic were obtained predose (within −10 min), at 30 min, and at 1 h, 1 h 15 min, 1 h 30 min, 1 h 45 min, 2, 4, 8, 12, and 24 h postdose for each dose period. Plasma samples for drug concentration measurements were analyzed using a validated high-pressure liquid chromatography tandem mass spectrometry (HPLC-MS/MS) method. In brief, samples were spiked with a stable isotope-labeled internal standard and then extracted by protein precipitation before injection onto the HPLC-MS/MS system. Unique transitions were monitored for all test articles and internal standards. Plasma concentrations below the limit of quantitation were reported as 0.
In the SAD/MAD study, geometric means were calculated for AUC and Cmax values. Analyses using linear models were performed to assess dose proportionality (both single dose and multiple dose), time dependence, accumulation, and attainment of steady state (multiple dose). Dose proportionality was assessed using linear models for the SAD and MAD cohorts separately. […] Point estimates and 90% confidence intervals (CIs), using the residual mean square error obtained from the ANOVA, were constructed for the comparisons between treatments. The point and CI estimates were back-transformed to give estimates of the ratios (percentages) of the geometric LSMs and corresponding 90% CIs.
Turning to `C[C@]1(Cn2ccnn2)[C@H](C(=O)O)N2C(=O)C[C@H]2S1(=O)=O` [Tazobactam, tazobactam], the “AUC0-inf, geometric LSM, reference treatment” value (“AUC0-inf, geometric LSM” below) was 30,200 h·ng/ml; the AUC0-t is on record as 32,000 ± 5,060 (15.8) ng·h/ml; the “AUC0-τ, geometric LSM, reference treatment” value (“AUC0-τ, geometric LSM” for short) is recorded as 30,200 h·ng/ml; the AUC(0-inf) is listed as 32,000 ± 5,060 (15.8) ng·h/ml. The CL was 16.1 ± 3.0 (18.4) liters/h; the Cmax was 18,500 ± 2,610 (14.1) ng/ml; the “Cmax, geometric LSM, reference treatment” value is 17,600 ng/ml; the Tmax is listed as 1.0 ± 0 (1.2) h. The V was 41.6 ± 6.5 (15.6) liters, the kel was 0.40 ± 0.12 (30.8) 1/h and the t1/2 was 1.9 ± 0.4 (22.4) h.
Take `CC(C)(O/N=C(\C(=O)N[C@@H]1C(=O)N2C(C(=O)[O-])=C(C[n+]3ccccc3)CS[C@H]12)c1csc(N)n1)C(=O)O` [Ceftazidime, ceftazidime]: the “AUC0-inf, geometric LSM” value was 163,000 h·ng/ml; the AUC0-t is reported as 162,000 ± 22,400 (13.8) ng·h/ml; the “AUC0-τ, geometric LSM” value is on record as 163,000 h·ng/ml; the AUC(0-inf) was 163,000 ± 22,500 (13.8) ng·h/ml. For the same molecule, the CL is given as 6.3 ± 0.8 (12.8) liters/h; the Cmax is 70,200 ± 5,790 (8.2) ng/ml; the “Cmax, geometric LSM, reference treatment” value is recorded as 70,300 ng/ml; the Tmax is listed as 1.0 ± 0 (0) h. Further, the V is on record as 24.0 ± 3.1 (12.8) liters, the kel was 0.26 ± 0.01 (3.1) 1/h and the t1/2 is on record as 2.7 ± 0.1 (3.1) h.
`CCN1CCN(C(=O)N[C@@H](C(=O)N[C@@H]2C(=O)N3[C@@H]2SC(C)(C)[C@@H]3C(=O)O)c2ccccc2)C(=O)C1=O` [Piperacillin, piperacillin]: the “AUC0-inf, geometric LSM” value is given as 228,000 h·ng/ml; the AUC0-t is given as 240,000 ± 33,000 (13.7) ng·h/ml; the “AUC0-τ, geometric LSM” value is 228,000 h·ng/ml; the AUC(0-inf) was 240,000 ± 33,000 (13.7) ng·h/ml. Besides, the CL was 19.1 ± 3.0 (15.8) liters/h; the Cmax was 154,000 ± 23,500 (15.2) ng/ml; the “Cmax, geometric LSM, reference treatment” value is 145,000 ng/ml; the Tmax is 1.0 ± 0 (1.2) h. The V is given as 60.7 ± 10.6 (17.4) liters, the kel is recorded as 0.32 ± 0.02 (5.6) 1/h and the t1/2 is on record as 2.2 ± 0.1 (5.7) h.
